Values quoted from earlier work as cited in publication PMC12505607 (BMC Medicine, 2025).
Read-outs that look alike come from different tables or passages of the source.

Assays:
[1] = tested on: patients
[2] = tested on: MATE1
[3] = tested on: OCT2
[4] = tested on: MATE2-K

SMILES	recommended dose for combination with endocrine therapy ([1]; in vivo) [mg BID]	patients with grade 3 fatigue as DLTs ([1]; phase 1 dose-escalation study) [patients]	incidence of grades 3–4 neutropenia ([1]; phase 1 study) [%]	MATE1 inhibition [2]	OCT2 inhibition [3]	MATE2-K inhibition [4]	incidence of grades 3–4 neutropenia ([1]; in vivo) [%]
CCN1CCN(Cc2ccc(Nc3ncc(F)c(-c4cc(F)c5nc(C)n(C(C)C)c5c4)n3)nc2)CC1 [abemaciclib]	150	4	32.0	inhibition	inhibition	inhibition	
CC(=O)c1c(C)c2cnc(Nc3ccc(N4CCNCC4)cn3)nc2n(C2CCCC2)c1=O [palbociclib]							33.0
CN(C)C(=O)c1cc2cnc(Nc3ccc(N4CCNCC4)cn3)nc2n1C1CCCC1 [ribociclib]			27.0				
